Test results from patent publication US7135499B2, “Active substance combinations having insecticidal and acaricidal properties” (priority 2002, dated 2006).
“And” between values parts separate entries of the source, which are not always exact repeats. Equal values may be shown once. Read-outs that look alike come from different tables or passages of the source.

Columns and labels:
[1] = tested on: caterpillars of the diamondback moth (Plutella xylostella, resistant strain); experiment: Plutella test, resistant strain; assay type: in vivo
[2] = tested on: caterpillars of the diamondback moth (Plutella xylostella, sensitive strain); experiment: Plutella test, sensitive strain; assay type: in vivo
[3] = tested on: Heliothis armigera caterpillars; experiment: Heliothis armigera test; assay type: in vivo; conditions: for pest or weed control at 0.12 ppm: read-out: Kill rate in % found, 0.12 ppm; for pest or weed control at 0.024 ppm: read-out: Kill rate in % found, 0.024 ppm; for pest or weed control at 3 ppm: read-out: Kill rate in % found, 3 ppm
[4] = tested on: caterpillars of the armyworm (Spodoptera exigua); experiment: Spodoptera exigua test; assay type: in vivo
[5] = tested on: larvae of the mustard beetle (Phaedon cochleariae); experiment: Phaedon larvae test
[6] = tested on: caterpillars of the armyworm (Spodoptera frugiperda); experiment: Spodoptera frugiperda test; assay type: in vivo; conditions: for pest or weed control at 0.16 ppm: read-out: Kill rate in % found, 0.16 ppm; for pest or weed control at 0.6 ppm: read-out: Kill rate in % found, 0.6 ppm
[7] = tested on: cotton aphid (Aphis gossypii); experiment: Aphis gossypii test; assay type: in vivo; conditions: after 6 d
[8] = tested on: green peach aphid (Myzus persicea); experiment: Myzus test; assay type: in vivo
[9] = Helicoverpa armigera, 144 h, after 6 d
[10] = Helicoverpa armigera, 72 h, after 3 d
[11] = Spodoptera frugiperda, 72 h, after 3 d
[12] = Spodoptera frugiperda, 144 h, after 6 d

Molecule: O=C(NC(=O)c1c(F)cccc1F)Nc1ccc(Oc2ccc(C(F)(F)F)cc2Cl)cc1F [flufenoxuron]
- Kill rate in % found ([1]; 0.12 ppm, after 6 d): 40%
- Kill rate in % found ([2]; 0.12 ppm, after 3 d): 0%
- pest or weed control at 0.12 ppm [3, 9]: 15%
- Kill rate in % found ([4]; 0.6 ppm, after 3 d): 0%
- Kill rate in % found ([5]; 3 ppm, after 3 d): 0%

Molecule: emamectin-benzoate
- Kill rate in % found ([1]; 0.00024 ppm, after 6 d): 15%
- Kill rate in % found ([2]; 0.00024 ppm, after 6 d): 10%
- Kill rate in % found ([3]; 0.00024 ppm, after 6 d): 0%
- Kill rate in % found ([6]; 0.006 ppm, after 3 d): 70%
- Kill rate in % found ([4]; 0.0012 ppm, after 6 d): 20%
- Kill rate in % found ([5]; 0.006 ppm, after 6 d): 10%

Molecule: O=C(NC(=O)c1ccccc1Cl)Nc1ccc(OC(F)(F)F)cc1 [triflumuron]
- Kill rate in % found ([1]; 3 ppm, after 6 d): 0%
- Kill rate in % found ([2]; 0.6 ppm, after 3 d): 0%
- pest or weed control at 15 ppm ([3]; Helicoverpa armigera, 72 h, read-out: Kill rate in % found, 15 ppm, after 3 d): 0%
- pest or weed control at 0.12 ppm ([6]; Spodoptera frugiperda, 72 h, read-out: Kill rate in % found, 0.12 ppm, after 3 d): 5%
- Kill rate in % found ([4]; 15 ppm, after 3 d): 15%
- Kill rate in % found ([5]; 0.6 ppm, after 6 d): 0%

Molecule: N#C/N=C1\SCCN1Cc1ccc(Cl)nc1 [thiacloprid]
- Kill rate in % found ([7]; 3 ppm): 50%
- Kill rate in % found ([8]; 3 ppm, after 6 d): 60%
- Kill rate in % found ([1]; 3 ppm, after 3 d): 5%
- Kill rate in % found ([5]; 15 ppm, after 6 d): 85%

Molecule: Cc1cc(C(F)(C(F)(F)F)C(F)(F)F)ccc1NC(=O)c1cccc(I)c1C(=O)NC(C)(C)CS(C)(=O)=O [(I), N^2-[1,1-dimethyl-2-(methylsulphonyl)ethyl]-3-iodo-N^1-{2-methyl-4-[1,2,2,2-tetrafluoro-1-(trifluoromethyl)ethyl]phenyl}phthalamide]
- Kill rate in % found ([7]; 500 ppm): 0%
- Kill rate in % found ([8]; 100 ppm, after 1 d): 0%
- Kill rate in % found ([8]; 500 ppm, after 6 d): 0%
- Kill rate in % found ([1]; 0.0048 ppm, after 6 d): 10% and 0%
- Kill rate in % found ([1]; 0.02 ppm, after 6 d): 30%
- Kill rate in % found ([1]; 0.024 ppm, after 3 d): 70%
- Kill rate in % found ([2]; 0.0048 ppm, after 3 d): 0%
- Kill rate in % found ([2]; 0.0048 ppm, after 6 d): 25%
- Kill rate in % found ([2]; 0.0064 ppm, after 6 d): 60%
- Kill rate in % found ([2]; 0.024 ppm, after 3 d): 55%
- Kill rate in % found ([2]; 0.032 ppm, after 3 d): 65%
- pest or weed control at 0.024 ppm [3, 10]: 80%
- pest or weed control at 0.1 ppm ([3]; Helicoverpa armigera, 72 h, read-out: Kill rate in % found, 0.1 ppm, after 3 d): 80%
- pest or weed control at 0.12 ppm [3, 10]: 80%
- pest or weed control at 0.032 ppm ([3]; Helicoverpa armigera, 96 h, read-out: Kill rate in % found, 0.032 ppm, after 4 d): 90%
- pest or weed control at 0.024 ppm [3, 9]: 70%
- pest or weed control at 0.16 ppm [6, 11]: 70%
- pest or weed control at 0.16 ppm ([6]; Spodoptera frugiperda, 96 h, after 4 d): 70%
- pest or weed control at 0.02 ppm ([6]; Spodoptera frugiperda, 144 h, read-out: Kill rate in % found, 0.02 ppm, after 6 d): 5%
- pest or weed control at 0.16 ppm [6, 12]: 95%
- Kill rate in % found ([4]; 0.024 ppm, after 6 d): 40%
- Kill rate in % found ([4]; 0.032 ppm, after 4 d): 10%
- Kill rate in % found ([4]; 0.12 ppm, after 6 d): 85%
- Kill rate in % found ([5]; 0.12 ppm, after 3 d): 0%
- Kill rate in % found ([5]; 0.12 ppm, after 6 d): 0%
- Kill rate in % found ([5]; 0.6 ppm, after 3 d): 0%
- Kill rate in % found ([5]; 3 ppm, after 3 d): 60%
- Kill rate in % found ([5]; 3 ppm, after 6 d): 70%

Molecule: COc1cccc(C(=O)NN(C(=O)c2cc(C)cc(C)c2)C(C)(C)C)c1C [methoxyfenozide]
- Kill rate in % found ([1]; 0.6 ppm, after 6 d): 0%
- pest or weed control at 3 ppm [3, 10]: 50%
- pest or weed control at 0.6 ppm [6, 12]: 5%

Molecule: N#Cc1nn(-c2c(Cl)cc(C(F)(F)F)cc2Cl)c(N)c1[S+]([O-])C(F)(F)F (centres unmarked) [fipronil]
- Kill rate in % found ([2]; 0.12 ppm, after 3 d): 65%
- pest or weed control at 0.12 ppm [3, 9]: 10%
- pest or weed control at 0.6 ppm [6, 11]: 20%

Molecule: CN/C(=N\[N+](=O)[O-])NCc1cnc(Cl)s1 [clothianidin]
- Kill rate in % found ([8]; 0.6 ppm, after 6 d): 60%
- pest or weed control at 3 ppm [3, 10]: 10%

Molecule: CN/C(=N\[N+](=O)[O-])NCC1CCOC1 (centres unmarked) [dinotefuran]
- Kill rate in % found ([8]; 3 ppm, after 1 d): 15%
- pest or weed control at 3 ppm ([6]; Spodoptera frugiperda, 72 h, read-out: Kill rate in % found, 3 ppm, after 3 d): 40%

Molecule: CC1(C)[C@H](C(=O)O[C@H](C#N)c2cccc(Oc3ccccc3)c2)[C@@H]1C=C(Br)Br [deltamethrin]
- Kill rate in % found ([2]; 0.00128 ppm, after 6 d): 40%
- pest or weed control at 0.0064 ppm ([3]; Helicoverpa armigera, 96 h, read-out: Kill rate in % found, 0.0064 ppm, after 4 d): 10%
- pest or weed control at 0.0064 ppm ([6]; Spodoptera frugiperda, 96 h, read-out: Kill rate in % found, 0.0064 ppm, after 4 d): 0%
- Kill rate in % found ([4]; 0.00128 ppm, after 4 d): 0%

Molecule: abamectin
- Kill rate in % found ([2]; 0.00096 ppm, after 3 d): 35%
- Kill rate in % found ([3]; 0.0048 ppm, after 6 d): 30%
- Kill rate in % found ([6]; 3 ppm, after 3 d): 25%
- Kill rate in % found ([4]; 3 ppm, after 6 d): 70%
- Kill rate in % found ([5]; 0.12 ppm, after 3 d): 25%

Molecule: COC(=O)N(C(=O)N1COC2(C(=O)OC)Cc3cc(Cl)ccc3C2=N1)c1ccc(OC(F)(F)F)cc1 (centres unmarked) [indoxacarb]
- Kill rate in % found ([1]; 0.12 ppm, after 6 d): 50%
- Kill rate in % found ([2]; 0.024 ppm, after 3 d): 0%
- pest or weed control at 0.024 ppm [3, 9]: 0%
- pest or weed control at 0.6 ppm [6, 11]: 60%
- Kill rate in % found ([4]; 0.6 ppm, after 3 d): 20%
- Kill rate in % found ([5]; 0.6 ppm, after 3 d): 35%

Molecule: spinosad
- Kill rate in % found ([2]; 0.0064 ppm, after 3 d): 5%
- Kill rate in % found ([6]; 0.032 ppm, after 3 d): 35%

Molecule: CC[S+]([O-])c1c(C#N)nn(-c2c(Cl)cc(C(F)(F)F)cc2Cl)c1N (centres unmarked) [ethiprole]
- pest or weed control at 20 ppm ([6]; Spodoptera frugiperda, 144 h, read-out: Kill rate in % found, 20 ppm, after 6 d): 10%

Molecule: CN1COCN(Cc2cnc(Cl)s2)/C1=N/[N+](=O)[O-] [thiamethoxam]
- Kill rate in % found ([8]; 0.6 ppm, after 1 d): 85%
- Kill rate in % found ([1]; 3 ppm, after 6 d): 0%
- Kill rate in % found ([5]; 15 ppm, after 3 d): 85%
